Laboratory results: patent US20060247261A1 (priority 2002, published 2006)

Biological target: T1, human cannabinoid CB2 receptor (Homo sapiens, UniProt P34972)
T1 construct: expressed in transfected cells; host or cells: Saccharomyces cerevisiae strain MMY23 (expresses a chimeric Gpa1/human Galpha-i3 G-protein alpha subunit)
Experiment: Cannabinoid CB2 receptor agonist activity, yeast reporter assay
Format: cell-based
Conditions: for Emax: read-out: efficacy (Emax) at the cloned human cannabinoid CB2 receptor
Summary of the method: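 Agonism read in S. cerevisiae strain MMY23 with the human CB2 receptor integrated at ura3 under the GPD promoter, coupled through a Gpa1/human Gαi3 C-terminal chimeric G-alpha. Compounds were added in DMSO (1% final). Fluorescence versus concentration was fitted by four-parameter fit to give a concentration effect value.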

T1 sequence (P34972 whole entry): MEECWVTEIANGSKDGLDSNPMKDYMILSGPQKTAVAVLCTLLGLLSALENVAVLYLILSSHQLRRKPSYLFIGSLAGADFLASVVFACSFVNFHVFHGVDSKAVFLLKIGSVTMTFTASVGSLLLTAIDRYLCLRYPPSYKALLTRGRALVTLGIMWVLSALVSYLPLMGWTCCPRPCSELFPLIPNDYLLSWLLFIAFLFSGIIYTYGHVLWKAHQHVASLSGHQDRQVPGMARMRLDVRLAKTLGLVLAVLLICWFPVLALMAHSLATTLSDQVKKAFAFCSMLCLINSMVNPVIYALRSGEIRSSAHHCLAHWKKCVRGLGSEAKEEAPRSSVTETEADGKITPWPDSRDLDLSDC

SMILES	EC50 [µM]	Emax [%]
N#Cc1ccc(Nc2ncc(C(=O)NCc3ccc(F)cc3)c(C(F)(F)F)n2)cc1Cl [Example 86, 2-(3-Chloro-4-cyano-phenylamino)-4-trifluoromethyl-pyrimidine-5-carboxylic acid 4-fluoro-benzylamide]	0.02 to 1	> 50
COc1cccc(Nc2ncc(C(=O)NCc3ccncc3)c(C(F)(F)F)n2)c1 [Example 87]	0.02 to 1	> 50
O=C(NCc1ccnc(F)c1)c1cnc(Nc2cccc(Br)c2)nc1C(F)(F)F [Example 88, 2-(3-Bromo-phenylamino)-4-trifluoromethyl-pyrimidine-5-carboxylic acid (2-fluoro-pyridin4-ylmethyl)-amide]	0.02 to 1	> 50
O=C(NCc1ccnc(F)c1)c1cnc(Nc2cccc(F)c2)nc1C(F)(F)F [Example 89, 2-(3-Fluoro-phenylamino)-4-trifluoromethyl-pyrimidine-5-carboxylic acid (2-fluoro-pyridin-4-ylmethyl)-amide]	0.02 to 1	> 50
O=C(NCc1ccnc(F)c1)c1cnc(Nc2cc(Cl)ccc2Cl)nc1C(F)(F)F [Example 90, 2-(2,5-Dichloro-phenylamino)-4-trifluoromethyl-pyrimidine-5-carboxylic acid (2-fluoro-pyridin-4-ylmethyl)-amide]	0.02 to 1	> 50
O=C(NCc1ccnc(F)c1)c1cnc(Nc2cc(Cl)cc(Cl)c2)nc1C(F)(F)F [Example 91, 2-(3,5-Dichloro-phenylamino)-4-trifluoromethyl-pyrimidine-5-carboxylic acid (2-fluoro-pyridin-4-ylmethyl)-amide]	0.02 to 1	> 50
O=C(NCc1ccnc(F)c1)c1cnc(Nc2ccc(Cl)c(Cl)c2)nc1C(F)(F)F [Example 92, 2-(3,4-Dichloro-phenylamino)-4-trifluoromethyl-pyrimidine-5-carboxylic acid (2-fluoro-pyridin-4-ylmethyl)-amide]	0.02 to 1	> 50
O=C(NCc1ccnc(F)c1)c1cnc(Nc2c(Cl)cccc2Cl)nc1C(F)(F)F [Example 93, 2-(2,6-Dichloro-phenylamino)-4-trifluoromethyl-pyrimidine-5-carboxylic acid (2-fluoro-pyridin-4-ylmethyl)-amide]	0.02 to 1	> 50
O=C(NCc1ccnc(F)c1)c1cnc(Nc2cccc(Cl)c2Cl)nc1C(F)(F)F [Example 94, 2-(2,3-Dichloro-phenylamino)-4-trifluoromethyl-pyrimidine-5-carboxylic acid (2-fluoro-pyridin-4-ylmethyl)-amide]	0.02 to 1	> 50
O=C(NCc1ccnc(F)c1)c1cnc(Nc2ccc(Cl)cc2Cl)nc1C(F)(F)F [Example 95, 2-(2,4-Dichloro-phenylamino)-4-trifluoromethyl-pyrimidine-5-carboxylic acid (2-fluoro-pyridin-4-ylmethyl)-amide]	0.02 to 1	> 50
CN(Cc1ccccc1)C(=O)c1cnc(Nc2ccccc2Cl)nc1C(F)(F)F [Example 96, 2-(2-Chloro-phenylamino)-4-trifluoromethyl-pyrimidine-5-carboxylic acid benzyl-methyl-amide]	–	> 50
N#Cc1cccc(Nc2ncc(C(=O)NCc3ccccc3)c(C(F)(F)F)n2)c1 [Example 97, 2-(3-Cyano-phenylamino)-4-trifluoromethyl-pyrimidine-5-carboxylic acid benzylamide]	0.02 to 1	> 50
O=C(NCc1ccccc1)c1cnc(Nc2c(Cl)cccc2Cl)nc1C(F)(F)F [Example 98, 2-(2,6-Dichloro-phenylamino)-4-trifluoromethyl-pyrimidine-5-carboxylic acid benzylamide]	0.02 to 1	> 50
O=C(NCc1ccc(F)cc1)c1cnc(Nc2cccc(Cl)c2Cl)nc1C(F)(F)F [Example 99, 2-(2,3-Dichloro-phenylamino)-4-trifluoromethyl-pyrimidine-5-carboxylic acid 4-fluoro-benzylamide]	0.02 to 1	> 50
O=C(NCc1ccc(F)cc1)c1cnc(Nc2ccc(Cl)cc2Cl)nc1C(F)(F)F [Example 100, 2-(2,4-Dichloro-phenylamino)-4-trifluoromethyl-pyrimidine-5-carboxylic acid 4-fluoro-benzylamide]	0.02 to 1	> 50
O=C(NCc1ccc(F)cc1)c1cnc(Nc2cc(Cl)ccc2Cl)nc1C(F)(F)F [Example 101, 2-(2,5-Dichloro-phenylamino)-4-trifluoromethyl-pyrimidine-5-carboxylic acid 4-fluoro-benzylamide]	0.02 to 1	> 50
O=C(NCc1ccc(F)cc1)c1cnc(Nc2ccc(Cl)c(Cl)c2)nc1C(F)(F)F [Example 102, 2-(3,4-Dichloro-phenylamino)-4-trifluoromethyl-pyrimidine-5-carboxylic acid 4-fluoro-benzylamide]	0.02 to 1	> 50
O=C(NCc1ccc(F)cc1F)c1cnc(Nc2cccc(Cl)c2)nc1C(F)(F)F [Example 103, 2-(3-Chloro-phenylamino)-4-trifluoromethyl-pyrimidine-5-carboxylic acid 2,4-difluoro-benzylamide]	0.02 to 1	> 50
O=C(NCc1ccc(F)cc1)c1cnc(Nc2ccc(C(F)(F)F)c(F)c2)nc1C(F)(F)F [Example 104, 2-(3-Fluoro-4-trifluoromethyl-phenylamino)-4-trifluoromethyl-pyrimidine-5-carboxylic acid 4-fluoro-benzylamide]	0.02 to 1	> 50
NC(=O)c1ccc(CNC(=O)c2cnc(Nc3cccc(Cl)c3)nc2C(F)(F)F)cc1 [Example 105, 2-(3-Chloro-phenylamino)-4-trifluoromethyl-pyrimidine-5-carboxylic acid 4-carbarnoyl-benzylamide]	> 1	< 50
CC(C)(C)c1ccc(CNC(=O)c2cnc(Nc3cccc(Cl)c3)nc2C(F)(F)F)cc1 [Example 106, 2-(3-Chloro-phenylamino)-4-trifluoromethyl-pyrimidine-5-carboxylic acid 4-tert-butyl-benzylamide]	> 1	< 50
CC(C)(C)OC(=O)Nc1ccc(CNC(=O)c2cnc(Nc3cccc(Cl)c3)nc2C(F)(F)F)cc1 [Example 107]	> 1	< 50
C[C@@H](NC(=O)c1cnc(Nc2cccc(Cl)c2)nc1C(F)(F)F)c1ccccc1 [Example 108, 2-(3-Chloro-phenylamino)-4-trifluoromethyl-pyrimidine-5-carboxylic acid ((R)-1-phenyl-ethyl)-amide]	> 1	< 50
O=C(NCc1ccc(F)c(Cl)c1)c1cnc(Nc2cccc(Cl)c2)nc1C(F)(F)F [Example 109, 2-(3-Chloro-phenylamino)-4-trifluoromethyl-pyrimidine-5-carboxylic acid 3-chloro,4-fluoro-benzylamide]	> 1	< 50
CN(Cc1ccc(F)cc1)C(=O)c1cnc(Nc2cccc(Cl)c2)nc1C(F)(F)F [Example 110, 2-(3-Chloro-phenylamino)-4-trifluoromethyl-pyrimidine-5-carboxylic acid (4-fluoro-benzyl)-methyl-amide]	> 1	< 50
O=C(NCc1ccc(F)cc1)c1cnc(Nc2ccc(OC(F)(F)F)c(Cl)c2)nc1C(F)(F)F [Example 111, 2-(3-Chloro-4-trifluoromethoxy-phenylamino)-4-trifluoromethyl-pyrimidine-5-carboxylic acid 4-fluoro-benzylamide]	> 1	< 50
O=C(O)Cc1cccc(Nc2ncc(C(=O)NCc3ccc(F)cc3)c(C(F)(F)F)n2)c1 [Example 112, {3-[(4-Fluoro-benzylcarbamoyl)-trifluoromethyl-pyrimidin-2-ylamino]-phenyl}-acetic acid]	> 1	< 50
O=C(O)c1cc(Cl)cc(Nc2ncc(C(=O)NCc3ccc(F)cc3)c(C(F)(F)F)n2)c1 [Example 113, 3-Chloro-5-[(4-fluoro-benzylcarbamoyl)-trifluoromethyl-pyrimidin-2-ylarnino]-benzoic acid]	> 1	< 50
O=C(NCc1ccc(F)cc1)c1cnc(Nc2cc(C(F)(F)F)cc(C(F)(F)F)c2)nc1C(F)(F)F [Example 114, 2-(3,5-Ditrifluoromethyl-phenylamino)-4-trifluoromethyl-pyrimidine-5-carboxylic acid 4-fluoro-benzylamide]	> 1	< 50
